Assay results from ChEMBL document CHEMBL3232739, “Discovery of a potent and dissociated non-steroidal glucocorticoid receptor agonist containing an alkyl carbinol pharmacophore” (Bioorg Med Chem Lett, 2014).
In brackets after ≈: the same amount, converted by molar mass.

Key:
[1] = biological target: T1, Glucocorticoid receptor (Homo sapiens, UniProt P04150)
T1 sequence (P04150 whole entry): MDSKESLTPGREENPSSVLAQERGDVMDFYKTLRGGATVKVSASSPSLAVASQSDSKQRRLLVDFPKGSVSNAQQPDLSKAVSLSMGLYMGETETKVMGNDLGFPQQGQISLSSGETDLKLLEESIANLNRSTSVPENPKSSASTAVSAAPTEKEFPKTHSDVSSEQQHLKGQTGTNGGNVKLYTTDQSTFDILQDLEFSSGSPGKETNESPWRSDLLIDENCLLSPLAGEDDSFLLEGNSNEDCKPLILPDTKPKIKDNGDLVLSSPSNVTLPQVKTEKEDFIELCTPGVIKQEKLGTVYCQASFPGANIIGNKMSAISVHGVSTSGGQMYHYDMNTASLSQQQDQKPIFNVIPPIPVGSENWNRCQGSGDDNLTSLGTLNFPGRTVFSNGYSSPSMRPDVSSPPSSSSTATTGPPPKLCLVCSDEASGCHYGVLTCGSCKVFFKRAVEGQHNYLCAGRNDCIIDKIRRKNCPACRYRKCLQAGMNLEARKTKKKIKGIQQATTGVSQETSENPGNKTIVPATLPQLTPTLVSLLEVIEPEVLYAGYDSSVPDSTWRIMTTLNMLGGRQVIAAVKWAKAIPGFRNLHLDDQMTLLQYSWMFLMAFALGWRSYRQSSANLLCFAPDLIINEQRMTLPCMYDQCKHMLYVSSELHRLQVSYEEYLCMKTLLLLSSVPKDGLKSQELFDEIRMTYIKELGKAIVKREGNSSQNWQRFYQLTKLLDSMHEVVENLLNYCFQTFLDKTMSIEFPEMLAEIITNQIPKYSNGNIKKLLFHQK

[2] = Volume of distribution at steady state in Sprague-Dawley rat at 2 mg/kg, iv; format: ADME, organism-based; parameters: dose 2 mg/kg, route intravenous; details: in vivo, read-out: Vdss
[3] = test system: Mus musculus; assay: Antiinflammatory activity in po dosed mouse assessed as inhibition of LPS-induced TNFalpha production; format: functional
[4] = species on record: Homo sapiens; assay: Selectivity ratio of IC50 for progesterone receptor (unknown origin) to IC50 for glucocorticoid receptor (unknown origin)
[5] = biological target: T1, Glucocorticoid receptor; assay: Transactivation of glucocorticoid receptor in human HeLa cells harboring MMTV promoter at 2 uM by luciferase reporter gene assay relative to dexamethasone; format: cell-based; details: read-out: Efficacy
[6] = test system: Mus musculus; assay: Antiinflammatory activity in mouse assessed as inhibition of LPS-induced TNFalpha production at 1 mg/kg, po; format: functional
[7] = AUC (infinity) in Sprague-Dawley rat at 30 mg/kg, po; format: ADME, organism-based; parameters: time infinity, dose 30 mg/kg, route oral; details: plasma
[8] = test system: Mus musculus; assay: Toxicity in B10.RIII mouse assessed as insulin level in serum at 100 mg/kg, po qd for 5 weeks relative to control; format: organism-based; parameters: dose 100 mg/kg, route oral; details: in vivo, 840 h
[9] = biological target: T1, Glucocorticoid receptor; remark: listed apart in the source
Description: Transactivation of glucocorticoid receptor in human HeLa cells harboring MMTV promoter by luciferase reporter gene assay

[10] = species on record: Homo sapiens; assay: Selectivity ratio of IC50 for mineralocorticoid receptor (unknown origin) to IC50 for glucocorticoid receptor (unknown origin)
[11] = test system: Mus musculus; assay: Toxicity in po dosed B10.RIII mouse assessed as triglyceride level in serum administered po qd for 5 weeks relative to control; format: organism-based; details: in vivo, 840 h
[12] = test system: Mus musculus; assay: Toxicity in B10.RIII mouse assessed as free fatty acid level in serum at 100 mg/kg, po qd for 5 weeks relative to control; format: organism-based; parameters: dose 100 mg/kg, route oral; details: in vivo, 840 h
[13] = Efflux ratio of permeability from basolateral to apical side over apical to basolateral side in human Caco2 cells; format: ADME, cell-based; details: Caco-2
[14] = Clearance in Sprague-Dawley rat at 2 mg/kg, iv; format: ADME, organism-based; parameters: dose 2 mg/kg, route intravenous; details: in vivo
[15] = test system: Mus musculus; assay: Toxicity in B10.RIII mouse assessed as triglyceride level in serum at 30 mg/kg, po qd for 5 weeks relative to control; format: organism-based; parameters: dose 30 mg/kg, route oral; details: in vivo, 840 h
[16] = test system: Mus musculus; assay: Toxicity in B10.RIII mouse assessed as insulin level in serum at 30 mg/kg, po qd for 5 weeks relative to control; format: organism-based; parameters: dose 30 mg/kg, route oral; details: in vivo, 840 h
[17] = test system: Mus musculus; assay: Toxicity in B10.RIII mouse assessed as body fate level in serum at 30 mg/kg, po qd for 5 weeks relative to control; format: organism-based; parameters: dose 30 mg/kg, route oral; details: in vivo, 840 h
[18] = Permeability across apical to basolateral side in human Caco2 cells; format: ADME, cell-based; details: Caco-2, read-out: permeability
[19] = Permeability across basolateral to apical side in human Caco2 cells; format: ADME, cell-based; details: Caco-2, read-out: permeability
[20] = test system: Mus musculus; assay: Antiarthritic activity in po dosed B10.RIII mouse collagen/complete Freund's adjuvant-induced arthritis model assessed as reduction of disease score administered po qd for 5 weeks relative to control; format: functional; details: 840 h
[21] = test system: Mus musculus; assay: Antiarthritic activity in B10.RIII mouse collagen/complete Freund's adjuvant-induced arthritis model assessed as reduction of disease score at 30 mg/kg, po qd for 5 weeks relative to control; format: functional; parameters: scale not given: the % may be the effect or the level left
[22] = test system: Mus musculus; assay: Toxicity in B10.RIII mouse assessed as free fatty acid level in serum at 30 mg/kg, po qd for 5 weeks relative to control; format: organism-based; parameters: dose 30 mg/kg, route oral; details: in vivo, 840 h
[23] = test system: Mus musculus; assay: Toxicity in B10.RIII mouse assessed as body fate level in serum at 100 mg/kg, po qd for 5 weeks relative to control; format: organism-based; parameters: dose 100 mg/kg, route oral; details: in vivo, 840 h
[24] = Equilibrium solubility of the compound at pH 7.4; format: physicochemical; details: buffer
[25] = Cmax in Sprague-Dawley rat at 30 mg/kg, po; format: ADME, organism-based; parameters: dose 30 mg/kg, route oral; details: in vivo
[26] = Equilibrium solubility of the compound at pH 2.2; format: physicochemical; details: buffer
[27] = test system: Mus musculus; assay: Antiarthritic activity in B10.RIII mouse collagen/complete Freund's adjuvant-induced arthritis model assessed as reduction of disease score at 100 mg/kg, po qd for 5 weeks relative to control; format: functional; parameters: scale not given: the % may be the effect or the level left
[28] = biological target: T1, Glucocorticoid receptor; remark: listed apart in the source
Description: Agonist activity at glucocorticoid receptor in human foreskin fibroblasts assessed as inhibition of IL-1-induced IL-6 production by trans-repression assay

[29] = Mean residence time in Sprague-Dawley rat at 2 mg/kg, iv; format: ADME, organism-based; parameters: dose 2 mg/kg, route intravenous; details: in vivo
[30] = test system: Mus musculus; assay: Toxicity in po dosed B10.RIII mouse assessed as insulin level in serum administered po qd for 5 weeks relative to control; format: organism-based; details: in vivo, 840 h

IC50 [1]: 0.002 µM
Vd [2]: 4 L/kg
Ratio IC50 [4]: > 100
Emax at 2 µM [5]: 1%
AUC(0-inf) [7]: 6730 ng·h/mL
IC50 [9]: > 2 µM
Ratio IC50 [10]: > 100
efflux ratio [13]: 1.3
clearance [14]: 48 mL/min/kg
Papp A→B [18]: 13.4 ×10⁻⁶ cm/s
Papp B→A [19]: 16.9 ×10⁻⁶ cm/s
solubility thermodynamic [24]: 15 µg/mL (≈ 39.2 µM)
Cmax [25]: 708 ng/mL
solubility thermodynamic [26]: 840 µg/mL (≈ 2200 µM)
IC50 [28]: 0.027 µM
MRT [29]: 1.38 h
Compound: Cc1ccc(F)cc1C(C)(C)C[C@@](O)(Cc1cc2cnccc2[nH]1)C(C)(C)C
ED50 [3]: < 1 mg/kg
inhibition in vivo at 1 mg/kg [6]: 82%
Activity [8]: 224%
Activity [11]: Dose-dependent effect
Activity [12]: -27%
Activity [15]: 29%
Activity [16]: 60%
Activity [17]: -7%
ED50 [20]: 30 mg/kg
Activity [21]: -51%
Activity [22]: 25%
Activity [23]: -3%
Activity [27]: -84%
Activity [30]: Dose-dependent effect
